Experimental data reported in patent publication US9072741B2, “Methods of treating liver fibrosis and pre-cirrhosis with epidermal growth factor receptor inhibitors” (The General Hospital Corporation, priority 2009, dated 2015).
“And” between values parts separate entries of the source, which are not always exact repeats. Equal entries are not always repeated. Marks after values point to notes of the source that are not given here.

Legend:
[1] = tested on: DEN-induced fibrosis and cirrhosis; experiment: DEN-treated rats with liver biopsy before and after treatment (disease progression within the same animal); type: in vivo, male Wistar rats
Procedure: FIG. 3A is a scheme of the experiment. Male Wistar rats received weekly intraperitoneal injections of DEN (50 mg/kg) for 18 weeks. After 12 weeks, the rats underwent a survival hepatectomy and a liver biopsy was removed for histology. Rats then received vehicle or erlotinib (2 mg/kg) daily (5 days/week) during weeks 13-18. Rats were sacrificed at 19 weeks after a one-week washout of DEN. FIG. 3B is a bar graph showing Ishak scores from Masson's trichrome stains of liver sections from each animal. **p<0.01 compared to vehicle. FIG. 3C is a bar graph depicting the number of tumor nodules that were greater than 5 mm in diameter in rats that received vehicle or erlotinib. **p<0.01 compared to vehicle. FIG. 3D is a bar graph showing the weights of livers at the time of sacrifice expressed as percent body weight.
To further examine the ability of erlotinib to reverse fibrosis and cirrhosis, liver biopsies were performed on DEN-treated rats before and after they received erlotinib (FIG. 3A) to determine disease progression within the same animal.

advanced HCC = conditions: recent clinical trials (Philip et al.; Thomas et al.); cited from earlier work

With C#Cc1cccc(Nc2ncnc3cc(OCCOC)c(OCCOC)cc23)c1 [erlotinib, 4-Quinazolinamine, N-(3-ethynylphenyl)-6,7-bis(2-methoxyethoxy)] the “animals with reversed disease progression” value ([1]; 2 mg/kg weeks 13-18, eight animals) was “two out of eight”, the “fibrosis and cirrhosis (Ishak, FIG. 3B)” value ([1]; 2 mg/kg weeks 13-18 vs vehicle) was “significantly less fibrosis and cirrhosis” and the “tumorigenesis (tumor nodules greater than 5 mm, FIG. 3C)” value ([1]; 2 mg/kg weeks 13-18 vs vehicle) was “significant decrease in tumorigenesis”. The “liver weight (percent body weight, FIG. 3D)” value ([1]; 2 mg/kg weeks 13-18 vs vehicle, at sacrifice) was “decrease in liver weight”, the “Ishak 19 weeks, AVERAGE” value ([1]; average of 8 rats after 2 mg/kg weeks 13-18, vehicle 5.8) was 4.3* and the “Change of Ishak score, AVERAGE” value ([1]; average of 8 rats, 2 mg/kg weeks 13-18, vehicle +2.2) was “+1”. For the same compound, the “Ishak 13 weeks, AVERAGE” value ([1]; average of 8 rats, biopsy before treatment, vehicle 3.6) was 3.3, the “Change of Ishak score” value ([1]; individual rats, 19 weeks vs 13 weeks, 2 mg/kg weeks 13-18, 2 mg/kg) was “+3 and +2 (3×) and −2 and −1 and +1 (2×)” and the “Ishak 19 weeks” value ([1]; individual rats, after 2 mg/kg daily (5 days/week) weeks 13-18) was 6 and 5 (2×) and 4 (3×) and 3 (2×). For the same compound, the “Ishak 13 weeks” value ([1]; individual rats, biopsy before treatment (baseline)) was 3 (4×) and 2 (2×) and 5 (2×) and the “disease control in advanced HCC patients” value (advanced HCC) was “improved disease control in only a minority”.
